Experimental data published in ChEMBL document CHEMBL1201862, “PubChem BioAssay data set” (2004).
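In this assay, cells in 96-well plates receive the compound at five concentrations for 48 hours. Endpoints are linearly interpolated between the surrounding concentrations. At the GI50, growth is halved.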 Activity calls are given as the source filed them. Rule as the data show it: active = GI50 up to about 1.1 µM and inactive = higher.

Legend:
Assay in all cases: NCI tumour cell line growth inhibition, 48 h
786-0 = system: 786-0
A549 = system: A549
ACHN = system: ACHN
CAKI-1 = system: CAKI-1
CCRF-CEM = system: CCRF-CEM
COLO 205 = system: COLO 205
DU-145 = system: DU-145
EKVX = system: EKVX
HCC 2998 = system: HCC 2998
HCT-116 = system: HCT-116
HCT-15 = system: HCT-15
HL-60 = system: HL-60
HOP-62 = system: HOP-62
HOP-92 = system: HOP-92
HT-29 = system: HT-29
Hs-578T = system: Hs-578T
IGROV-1 = system: IGROV-1
K562 = system: K562
KM12 = system: KM12
LOX IMVI = system: LOX IMVI
M14 = system: M14
MCF7 = system: MCF7
MDA-MB-231 = system: MDA-MB-231
MDA-MB-435 = system: MDA-MB-435
MDA-N = system: MDA-N
MOLT-4 = system: MOLT-4
Malme-3M = system: Malme-3M
NCI-H226 = system: NCI-H226
NCI-H23 = system: NCI-H23
NCI-H460 = system: NCI-H460
NCI-H522 = system: NCI-H522
NCI/ADR-RES = system: NCI/ADR-RES
OVCAR-3 = system: OVCAR-3
OVCAR-4 = system: OVCAR-4
OVCAR-5 = system: OVCAR-5
OVCAR-8 = system: OVCAR-8
PC-3 = system: PC-3
RPMI-8226 = system: RPMI-8226
RXF 393 = system: RXF 393
SF-268 = system: SF-268
SF-295 = system: SF-295
SF-539 = system: SF-539
SK-MEL-28 = system: SK-MEL-28
SK-MEL-2 = system: SK-MEL-2
SK-MEL-5 = system: SK-MEL-5
SK-OV-3 = system: SK-OV-3
SN12C = system: SN12C
SNB-19 = system: SNB-19
SNB-75 = system: SNB-75
SR = system: SR
SW-620 = system: SW-620
T47D = system: T47D
TK-10 = system: TK-10
U-251 = system: U-251
UACC-257 = system: UACC-257
UACC-62 = system: UACC-62
UO-31 = system: UO-31
A498 = system: A498
BT-549 = system: BT-549

SMILES: OC1NC2CC3NC(O)C(O)NC3CC2NC1O (centres undefined)
- GI50 (786-0): > 100 µM (inactive)
- GI50 (A549): > 100 µM (inactive)
- GI50 (ACHN): > 100 µM (inactive)
- GI50 (CAKI-1): > 100 µM (inactive)
- GI50 (CCRF-CEM): > 100 µM (inactive)
- GI50 (COLO 205): > 100 µM (inactive)
- GI50 (DU-145): > 100 µM (inactive)
- GI50 (EKVX): > 100 µM (inactive)
- GI50 (HCC 2998): > 100 µM (inactive)
- GI50 (HCT-116): > 100 µM (inactive)
- GI50 (HCT-15): > 100 µM
- GI50 (HL-60): > 100 µM (inactive)
- GI50 (HOP-62): > 100 µM (inactive)
- GI50 (HOP-92): > 100 µM (inactive)
- GI50 (HT-29): > 100 µM (inactive)
- GI50 (Hs-578T): > 100 µM (inactive)
- GI50 (IGROV-1): > 100 µM (inactive)
- GI50 (K562): > 100 µM (inactive)
- GI50 (KM12): > 100 µM (inactive)
- GI50 (LOX IMVI): > 100 µM (inactive)
- GI50 (M14): > 100 µM (inactive)
- GI50 (MCF7): > 100 µM (inactive)
- GI50 (MDA-MB-231): > 100 µM (inactive)
- GI50 (MDA-MB-435): > 100 µM (inactive)
- GI50 (MDA-N): > 100 µM (inactive)
- GI50 (MOLT-4): > 100 µM (inactive)
- GI50 (Malme-3M): > 100 µM (inactive)
- GI50 (NCI-H226): > 100 µM (inactive)
- GI50 (NCI-H23): > 100 µM (inactive)
- GI50 (NCI-H460): > 100 µM (inactive)
- GI50 (NCI-H522): > 100 µM (inactive)
- GI50 (NCI/ADR-RES): > 100 µM (inactive)
- GI50 (OVCAR-3): > 100 µM (inactive)
- GI50 (OVCAR-4): > 100 µM (inactive)
- GI50 (OVCAR-5): > 100 µM (inactive)
- GI50 (OVCAR-8): > 100 µM (inactive)
- GI50 (PC-3): > 100 µM (inactive)
- GI50 (RPMI-8226): > 100 µM (inactive)
- GI50 (RXF 393): > 100 µM (inactive)
- GI50 (SF-268): > 100 µM (inactive)
- GI50 (SF-295): > 100 µM (inactive)
- GI50 (SF-539): > 100 µM (inactive)
- GI50 (SK-MEL-28): > 100 µM (inactive)
- GI50 (SK-MEL-2): > 100 µM (inactive)
- GI50 (SK-MEL-5): > 100 µM (inactive)
- GI50 (SK-OV-3): > 100 µM (inactive)
- GI50 (SN12C): > 100 µM (inactive)
- GI50 (SNB-19): > 100 µM (inactive)
- GI50 (SNB-75): > 100 µM (inactive)
- GI50 (SR): > 100 µM (inactive)
- GI50 (SW-620): > 100 µM (inactive)
- GI50 (T47D): > 100 µM (inactive)
- GI50 (TK-10): > 100 µM (inactive)
- GI50 (U-251): > 100 µM (inactive)
- GI50 (UACC-257): > 100 µM (inactive)
- GI50 (UACC-62): > 100 µM (inactive)
- GI50 (UO-31): > 100 µM (inactive)

SMILES: CC(=O)O[C@H]1CC[C@@]2(C)C(=C[C@H](c3ccc(O)cc3)[C@H]3[C@@H]4CC[C@H](OC(C)=O)[C@@]4(C)CC[C@@H]32)C1
- GI50 (786-0): 19.6 µM (inactive)
- GI50 (A498): 0.51 µM (active)
- GI50 (A549): 16.3 µM (inactive)
- GI50 (ACHN): 22.6 µM (inactive)
- GI50 (BT-549): 14.2 µM (inactive)
- GI50 (CAKI-1): 18.6 µM (inactive)
- GI50 (CCRF-CEM): 21.3 µM (inactive)
- GI50 (COLO 205): 19.2 µM (inactive)
- GI50 (DU-145): 20.7 µM (inactive)
- GI50 (EKVX): 20.8 µM (inactive)
- GI50 (HCC 2998): 20.5 µM (inactive)
- GI50 (HCT-116): 15.8 µM (inactive)
- GI50 (HCT-15): 12.3 µM
- GI50 (HL-60): 19.6 µM (inactive)
- GI50 (HOP-62): 19.1 µM (inactive)
- GI50 (HOP-92): 34.4 µM (inactive)
- GI50 (HT-29): 13.6 µM (inactive)
- GI50 (K562): 12.9 µM (inactive)
- GI50 (KM12): 16.6 µM (inactive)
- GI50 (LOX IMVI): 14.1 µM (inactive)
- GI50 (M14): 19 µM (inactive)
- GI50 (MCF7): 23 µM (inactive)
- GI50 (MDA-MB-231): 17.9 µM (inactive)
- GI50 (MDA-MB-435): 25.2 µM (inactive)
- GI50 (MOLT-4): 18.4 µM (inactive)
- GI50 (Malme-3M): 17.9 µM (inactive)
- GI50 (NCI-H226): 17.4 µM (inactive)
- GI50 (NCI-H23): 19.8 µM (inactive)
- GI50 (NCI-H460): 20.5 µM (inactive)
- GI50 (NCI/ADR-RES): 13.5 µM (inactive)
- GI50 (OVCAR-3): 17.3 µM (inactive)
- GI50 (OVCAR-4): 15.4 µM (inactive)
- GI50 (OVCAR-5): 23.7 µM (inactive)
- GI50 (OVCAR-8): 16.9 µM (inactive)
- GI50 (PC-3): 14.3 µM (inactive)
- GI50 (RPMI-8226): 14 µM (inactive)
- GI50 (RXF 393): 22.5 µM (inactive)
- GI50 (SF-268): 19 µM (inactive)
- GI50 (SF-295): 29 µM (inactive)
- GI50 (SF-539): 21 µM (inactive)
- GI50 (SK-MEL-2): 20.2 µM (inactive)
- GI50 (SK-MEL-5): 11.4 µM (inactive)
- GI50 (SK-OV-3): > 100 µM (inactive)
- GI50 (SN12C): 23 µM (inactive)
- GI50 (SNB-19): 19.9 µM (inactive)
- GI50 (SNB-75): 24.7 µM (inactive)
- GI50 (SW-620): 22 µM (inactive)
- GI50 (TK-10): 32.3 µM (inactive)
- GI50 (U-251): 22.1 µM (inactive)
- GI50 (UACC-257): 22 µM (inactive)
- GI50 (UACC-62): 10.4 µM (inactive)
- GI50 (UO-31): 25.2 µM (inactive)
